Test results from patent publication US20070270488A1, “Treatment and Assays” (The Queen's University of Belfast, priority 2004, published 2007).
pIC50: −log10 of the molar value.

Columns and labels:
resected stage III CRC = conditions: adjuvant 5-FU-based chemotherapy, patients with resected stage III CRC; cited from earlier work
advanced CRC = conditions: monotherapy; cited from earlier work
[1] = test system: p53^−/− CPT-11-resistant HCT116 cells; assay: MTT cytotoxicity assay, p53^−/− CPT-11-resistant HCT116 cells; assay type: cell-based, human
Protocol: (§4) Tissue culture. HCT116 p53^+/+ and p53^−/− isogenic human colon cancer cells were kindly provided by Professor Bert Vogelstein (John Hopkins University, Baltimore, Md.). […] Parental and drug-resistant HCT116 cell lines were grown in McCoy's 5A medium supplemented with 10% dialysed foetal calf serum (FCS), 50 μg/ml penicillin-streptomycin, 2 mM L-glutamine and 1 mM sodium pyruvate (all from GIBCO Invitrogen Corporation, Paisley, Scotland) and maintained at 37° C. in a humidified atmosphere containing 5% CO2. 5-FU-resistant p53^+/+ and p53^−/− HCT116 cells were maintained in the presence of 2 μM and 4 μM 5-FU respectively. […] Prior to each experiment, resistant sub-lines were cultured in the absence of drug for 48 hours.

[2] = test system: p53^−/− oxaliplatin-resistant HCT116 cells; assay: MTT cytotoxicity assay, p53^−/− oxaliplatin-resistant HCT116 cells; assay type: cell-based, human; conditions: p53^−/− oxaliplatin-resistant, MTT, 72 h; read-out: IC50(72 h)
Protocol: (§1) Tissue culture. HCT116 p53^+/+ and p53^−/− isogenic human colon cancer cells were kindly provided by Professor Bert Vogelstein (John Hopkins University, Baltimore, Md.). Drug-resistant HCT116 sub-lines were developed in the inventors' laboratory by repeated exposure to stepwise increasing concentrations of 5-FU, CPT-11 or oxaliplatin over a period of approximately ten months. Parental and drug-resistant HCT116 cell lines were grown in McCoy's 5A medium supplemented with 10% dialysed foetal calf serum (FCS), 50 μg/ml penicillin-streptomycin, 2 mM L-glutamine and 1 mM sodium pyruvate (all from GIBCO Invitrogen Corporation, Paisley, Scotland) and maintained at 37° C. in a humidified atmosphere containing 5% CO2. 5-FU-resistant p53^+/+ and p53^−/− HCT116 cells were maintained in the presence of 2 μM and 4 μM 5-FU respectively. CPT-11-resistant p53^+/+ and p53^−/− HCT116 cells were maintained in the presence of 1 μM and 3 μM CPT-11 respectively. […] Prior to each experiment, resistant sub-lines were cultured in the absence of drug for 48 hours.
(§2) Cytotoxicity studies. Cells were seeded at 2000 cells per well in 96-well microtiter plates. After 48 hours, cells were treated with a range of concentrations of 5-FU, CPT-11 or oxaliplatin.
(§3) After 72 hours, 25 μl of MTT dye (5 mg/ml) was added to each well and the plates were incubated at 37° C. for 3 hours. Dark-blue formazan crystals formed by live cells were dissolved in 200 μl of DMSO and absorbance in individual wells was determined at 570 nm using an Emax precision microplate reader (Molecular Devices, Sunnyvale, Calif.).

[3] = test system: p53^−/− 5-FU-resistant HCT116 cells; assay: MTT cytotoxicity assay, p53^−/− 5-FU-resistant HCT116 cells; assay type: cell-based, human
Protocol: as §4

[4] = test system: HCT116 p53^−/− parental cells; assay: MTT cytotoxicity assay, HCT116 p53^−/− parental cells; assay type: cell-based, human
Protocol: as §1, §2, §3

[5] = test system: HCT116 p53^+/+ parental cells; assay: MTT cytotoxicity assay, HCT116 p53^+/+ parental cells; assay type: cell-based, human; conditions: HCT116 p53^+/+ parental, 72 h, read-out: IC50(72 h)
Protocol: as §1, §2, §3

[6] = test system: p53^−/− CPT-11-resistant HCT116 cells; assay: Flow cytometry cell cycle/apoptosis, p53^−/− CPT-11-resistant cells; assay type: cell-based, human; conditions: p53^−/− CPT-11-resistant cell line, data not shown
[7] = test system: p53^+/+ CPT-11-resistant HCT116 cells; assay: MTT cytotoxicity assay, p53^+/+ CPT-11-resistant HCT116 cells; assay type: cell-based, human; conditions: p53^+/+ CPT-11-resistant, MTT, 72 h; read-out: IC50(72 h)
Protocol: as §4

p53^+/+ HCT116 cells = assay: PARP cleavage immunoblotting, p53^+/+ HCT116 cells; assay type: cell-based, human; conditions: 5 μM, 48 hours, Western blot
Protocol: (§5) Immunoblotting. Cells, were seeded at 1×10^6 cells per plate in 90 mm tissue culture dishes. […] After 48 hours, cells were harvested and resuspended in 200 μl of 1× RIPA buffer (20 mM TRIS pH7.4, 150 mM NaCl, 1 mM EDTA pH8.0, 1% Triton X-100, 0.1% SDS). Cells were lysed and centrifuged at 13,200 rpm/4° C. for 15 minutes to remove cell debris.
(§6) Protein concentrations were determined using the BCA protein assay reagent (Pierce, Rockford, Ill.). Twenty micrograms of each protein sample were resolved by SDS-PAGE and transferred to a PVDF membrane by electroblotting. Immunodetection was performed using anti-PARP or anti-β-tubulin mouse monoclonal antibodies and a 1/2000 dilution of a horseradish peroxidase-conjugated sheep anti-mouse secondary antibody (Amersham, Buckinghamshire, England). The fluorescent signal was detected using the Super Signal chemiluminescent detection system (Pierce) according to the manufacturer's instructions.

[8] = test system: p53^+/+ oxaliplatin-resistant HCT116 cells; assay: MTT cytotoxicity assay, p53^+/+ oxaliplatin-resistant HCT116 cells; assay type: cell-based, human; conditions: p53^+/+ oxaliplatin-resistant, MTT, 72 h; read-out: IC50(72 h)
Protocol: as §1, §2, §3

[9] = test system: p53^+/+ 5-FU-resistant HCT116 cells; assay: MTT cytotoxicity assay, p53^+/+ 5-FU-resistant HCT116 cells; assay type: cell-based, human
Protocol: as §4

[10] = test system: p53^+/+ HCT116 parental cells; assay: Flow cytometry cell cycle/apoptosis, p53^+/+ HCT116 parental cells; assay type: cell-based, human; conditions: 72 hours
Protocol: (§7) Parental and drug-resistant HCT116 cell lines were grown in McCoy's 5A medium supplemented with 10% dialysed foetal calf serum (FCS), 50 μg/ml penicillin-streptomycin, 2 mM L-glutamine and 1 mM sodium pyruvate (all from GIBCO Invitrogen Corporation, Paisley, Scotland) and maintained at 37° C. in a humidified atmosphere containing 5% CO2. 5-FU-resistant p53^+/+ and p53^−/− HCT116 cells were maintained in the presence of 2 μM and 4 μM 5-FU respectively. […] Prior to each experiment, resistant sub-lines were cultured in the absence of drug for 48 hours.
(§8) Flow cytometry. Cells were seeded at 5×10^4 cells per well in 6-well plates. […] Seventy-two hours post-treatment, cells were harvested in 5 ml of 1× PBS/0.5 mM EDTA and pelleted by centrifugation at 1000 rpm/4° C. for 5 minutes. Cell pellets were washed once with 1× PBS/1% FCS, fixed in 70% ethanol and stained with propidium iodide. Analyses were performed on a Beckman Coulter Epics XL flow cytometer (Miami, Fla.).

[11] = test system: p53^−/− HCT116 parental cells; assay: Flow cytometry cell cycle/apoptosis, p53^−/− HCT116 parental cells; assay type: cell-based, human; conditions: 72 hours
Protocol: as §7, §8

[12] = test system: p53^+/+ 5-FU-resistant HCT116 cells; assay: Flow cytometry cell cycle/apoptosis, p53^+/+ 5-FU-resistant cells; assay type: cell-based, human; conditions: 72 hours
Protocol: as §7, §8

[13] = test system: p53^−/− 5-FU-resistant HCT116 cells; assay: Flow cytometry cell cycle/apoptosis, p53^−/− 5-FU-resistant cells; assay type: cell-based, human; conditions: 1 μM, 5 μM and 10 μM, relative to untreated control cells
Protocol: as §1
Flow cytometry. Cells were seeded at 5×10^4 cells per well in 6-well plates. After 48 hours, cells were treated with a range of concentrations of 5-FU, CPT-11 or oxaliplatin. Seventy-two hours post-treatment, cells were harvested in 5 ml of 1× PBS/0.5 mM EDTA and pelleted by centrifugation at 1000 rpm/4° C. for 5 minutes. […]

p53^−/− HCT116 cells = assay: PARP cleavage immunoblotting, p53^−/− HCT116 cells; assay type: cell-based, human; conditions: 5 μM, 48 hours, Western blot
Protocol: as §5, §6

O=c1[nH]cc(F)c(=O)[nH]1 [5-FU]
improvement of disease-free survival (resected stage III CRC): 35%
improvement of overall survival (resected stage III CRC): 22%
response rates (advanced CRC): 10 to 15%
increase in IC50 (72 hr) compared to parental cells ([1]; p53^−/− CPT-11-resistant vs p53^−/− parental): ~2 fold
pIC50 ([1]; p53^−/− CPT-11-resistant, MTT, 72 h, read-out: IC50(72 h)): 4.33
pIC50 [2]: 4.66
increase in IC50 (72 hr) compared to parental cells ([3]; p53^−/− 5-FU-resistant vs p53^−/− parental): 9.0 fold
pIC50 ([3]; p53^−/− 5-FU-resistant, MTT, 72 h, read-out: IC50(72 h)): 3.75
pIC50 ([4]; HCT116 p53^−/− parental, MTT, 72 h, read-out: IC50(72 h)): 4.71
increase in IC50 (72 h) dose in p53^−/− compared to p53^+/+ cells ([4]; parental HCT116 p53^−/− vs p53^+/+): 4.6 fold
pIC50 [5]: 5.37
cross-resistance examined using cell cycle analyses [6]: no evidence of cross-resistance
pIC50 [7]: 5.38
PARP cleavage (p53^+/+ HCT116 cells): observed
pIC50 [8]: 5.44
increase in IC50 (72 hr) compared to parental cells ([9]; p53^+/+ 5-FU-resistant vs p53^+/+ parental): 3.0 fold
pIC50 ([9]; p53^+/+ 5-FU-resistant, MTT, 72 h, read-out: IC50(72 h)): 4.90
cell cycle distribution ([10]; 1 μM): S-phase arrest and evidence of polyploidy
cell cycle distribution ([10]; 5 μM and 10 μM): arrested in G2/M-phase
sub-G0/G1 content ([10]; 5 μM and 10 μM, ~4% in control samples): 30-35%
cell cycle distribution ([11]; 1 μM): arrested in S-phase
cell cycle distribution ([11]; 5 μM and 10 μM): majority of p53^−/− parental cells had DNA content >4N
drug-induced apoptosis in p53^−/− compared to p53^+/+ parental cells ([11]; range of concentrations): significantly less apoptosis
cell cycle distribution ([12]; 1 μM): no change in cell cycle profile
cell cycle distribution ([12]; 5 μM and 10 μM): majority of cells had arrested at the G1/S boundary
induction of apoptosis compared to parental cells ([12]; 5 μM and 10 μM): significantly reduced
cell cycle distribution [13]: no change in cell cycle profile
PARP cleavage (p53^−/− HCT116 cells): not
